Experimental data as given in US11638763B2, “Nanoallergens and uses thereof” (University of Notre Dame du Lac, priority 2015, dated 2023).
Entries after “also recorded” stand apart in the source; their conditions may differ. Blank lines part the entries; values can stand above or below the molecule they belong to. Square brackets hold non-standard residues; d marks the D form. Ends that are not written are not given here. Hyp = O=C(O)[C@@H]1C[C@@H](O)CN1

Key:
RBL-SX38 cells = assay: Degranulation assay, RBL-SX38 cells primed with peanut allergy patient sera; format: cell-based, rat; conditions: for degranulation response: 2% epitope-lipid nanoallergens, single patient serum (FIG. 4); for Immuno-reactivity: epitope-lipid loaded in nanoallergens, patient sera; for effect on Ara h 2 triggered degranulation: 100 μM free epitope 2, FIG. 13
Procedure: Cell Culture. RBL-SX38 cells were a generous gift from Dr. Jean-Pierre Kinet from Harvard University. RBL-SX38 cells were cultured in Minimum Essential Media (Gibco) with 10% fetal bovine serum (Gemini BioProducts, Sacramento Calif.) and 1.2 mg/mL of G418 salt (Sigma) as previously described.
Degranulation Assays. Degranulation assays were performed as previously described using nanoallergens as the allergen. RBL cells were plated into 96-well dishes for 24 hrs and then incubated with 10% of human sera in cell culture media for an additional 24 hrs prior to the degranulation assay.
Using the mast-like rat basophil leukemia SX38 (RBL) cell line that has been transfected to express the human FcεRI on their surface, applicants can use peanut reactive patient sera in applicants' cellular degranulation assays (FIG. 8). The RBL cells become sensitized when IgEs from the patient sera (including those reactive to peanuts) tightly bind to the high affinity FcεRI. After sensitization, applicants added varying concentrations of either Ara h 2 or nanoallergens with 2% of epitope 2 lipid loaded into the liposome.

IgE^dansyl [1] = assay: Fluorescence quenching titration of dansyl conjugates; format: binding; conditions: monovalent affinity of hapten-amino acid conjugate
Procedure: Fluorescence Quenching Assay. The binding constants for dansyl conjugates were determined as previously described.^27 Briefly, Dansyl conjugates were titrated into wells containing 15 nM IgE^dansyl and then the flourscence read at various concentration points (Ex=280 nm, Em=335).

IgE^dansyl [2] = assay: Fluorescence quenching binding of HBI molecules to IgE^dansyl
Procedure: Fluorescence Quenching. In order to determine binding of HBI molecules to respective antibodies, we observed the quenching of tryptophan resides using a method previously described. Briefly, either IgE^dansyl or IgG^Penicillin was diluted into a non-binding 96-well dish at 40 nM in PBS. Then, HBI molecules which contained either a dansyl or DNP group were titrated into well and fluorescence (Ex. 280 nm, Em. 335) was observed using a SpectraMax M2 spectrophotometer. PBS and free tryptamine diluted to similar initial fluorescence values were used as controls to account for HBI fluorescence and non-specific quenching respectively.

patient IgEs = assay: ELISA binding assay with patient sera; design: species or system human; conditions: for EC50: patient serum 0, plate coated with anti-IgE IgG
Procedure: ELISA Assay. A high binding 96-well plate was incubated with anti-Human IgE in Carbonate-Bicarbonate buffer (Sigma) at a concentration of 3 nM for 16 hours at 4° C. Plate was washed with washing buffer (PBS with 0.5% tween 20) and then blocked with blocking buffer (5% BSA in PBS with 0.1% tween 20) for 1 hr at room temperature. Plate was washed with automatic plate washer (AquaMax 2000), then varying concentrations of either Ara h 2-Biotin (Indoors Biotechnologies) or FITC-peptide 2 conjugate in blocking buffer for 1 hour. Plate was washed again and then either streptavidin-HRP (1:5000 dilution) or anti-FITC HRP IgG (1:5000 dilution) was added in blocking buffer. After washing, Amplex Red substrate was added (Invitrogen) and plate fluorescence read at 5 minute intervals according to manufacturers instructions.

RBL-2H3 cells = assay: Degranulation assay, RBL-2H3 cells primed with monoclonal IgE; format: cell-based, rat; conditions: valency of 18, FIG. 19
Procedure: Cell Culture. RBL-2H3 cells were cultured in Minimum Essential Media (Gibco) with 10% fetal bovine serum (Gemini BioProducts) as previously described.^25
Degranulation Assays. RBL degranulation assays were performed as previously described, expect using nanoallergens as the allergen.^23 Additionally, RBL cells were incubated with 1 μg/mL of total IgE overnight prior to nanoallergen incubation using 75% IgE^cyclinA as an orthogonal IgE (i.e. an IgE specific to a molecule, cyclinA, which is not used in this study) to simulate physiological conditions for all degranulation assays.^21

[3] = system: Bruton's tyrosine kinase (BTK); assay: Western blot of BTK phosphorylation in stimulated RBL-SX38 cells; format: cell-based, rat; conditions: FIG. 3
Procedure: Western Blot. Stimulated RBL cells were analyzed for intracellular activity with a Western blotting technique previously described. RBL-SX38 cells were plated at approximately 0.5×10^6 cells per mL into a 3 mL dish for 24 hours. Cells were then incubated in 10% patient serum in cell culture media for 24 hours. Cells were then washed with Tyrodes buffer and incubated with Tyrodes from 30 minutes at 37° C. Ara h 2 or nanoallergens were then added at varying concentrations and incubated at 37° C. for 3 minutes. Cells were washed with ice cold PBS, then incubated in RIPA with phosphatase inhibitor lysis buffer, scrapped and sonicated for a minute intervals over the course of 30 minutes on ice. Lysates were then spun down at 15000 RPM for 10 minutes and their protein concentration determined by Bradford Assay. Laemmli buffer and PBS were added to all lysates so that their protein concentration was 0.5 mg/mL or would be 0.5 mg/mL prior to immunoprecipitation. Samples were boiled for 5 minutes; centrifuged and 20 uL of each was added to a 10% SDS-PAGE gel. Samples ran on the gel for 1 hr, were transferred to nitrocellulose paper for 1.5 hrs, and blocked with 5% BSA in TBS-T for 1 hr. […] The membranes were washed, and incubated in with Clarity™ Western ECL Blotting Substrate (Bio-Rad) for 5 minutes. Bands were exposed onto Kodak Chemiluminescence Film for times ranging from 1-30 minutes.

[4] = various sera from highly allergic individuals; cited from earlier work
[5] = all four patient sera, 2% loaded, FIG. 6

Molecule: Epitope-Lipid 7: Ara h 2 epitope PQRCDLE (142-148) lipid conjugate, tested loaded at 2% in nanoallergens (also: lipid conjugate, site not given here)
- degranulation response (RBL-SX38 cells): simulate degranulation
- degranulation response in patient sera (RBL-SX38 cells; [5]): low responses
- Immuno-reactivity (RBL-SX38 cells): Low

- Kd (IgE^dansyl [1]): 147 nM
- Kd (IgE^dansyl [2]): 29.9 ± 10 nM
Molecule: Dansyl

Molecule: free epitope 2 peptide: free Ara h 2 epitope 2 peptide, used at 100 μM (ERDPYS[Hyp]SQDPYS[Hyp]S)
- effect on Ara h 2 triggered degranulation (RBL-SX38 cells): only a very small decrease in degranulation response
- effect on Ara h 2 triggered degranulation (RBL-SX38 cells; listed as free epitope peptide 2): did not prevent Ara h 2 protein from triggering degranulation
- effect on nanoallergen degranulation response (RBL-SX38 cells; 100 μM free peptide 2, FIG. 9): can be prevented

Molecule: Epitope-Lipid 6: Ara h 2 epitope RQQEQQFKRELRNLPQQ (120-136) lipid conjugate, tested loaded at 2% in nanoallergens (also: lipid conjugate, site not given here)
- degranulation response (RBL-SX38 cells): simulate degranulation
- degranulation response in patient sera (RBL-SX38 cells; [5]): moderate responses
- Immuno-reactivity (RBL-SX38 cells): Mild

- binding through ELISA (patient IgEs): did not demonstrate any binding
Molecule: Epitope-Lipid 3: Ara h 2 epitope SDRLQGRQQ (114-123) lipid conjugate, tested loaded at 2% in nanoallergens (also: lipid conjugate, site not given here)
- degranulation response (RBL-SX38 cells; listed as epitope 3): simulate degranulation; also recorded: could trigger degranulation
- Immuno-reactivity (RBL-SX38 cells): Mild

- EC50 (RBL-2H3 cells): 26 ± 9 nM
Molecule: DNP-BSA: DNP groups covalently bonded to bovine serum albumin, valency of 18, used as a control

- EC50 (patient IgEs): 465 ± 200 nM
Molecule: Pep2: FITC-tagged epitope 2 peptide used in ELISA (ERDPYS[Hyp]SQDPYS[Hyp]S; also: FITC-tagged, site not given here)

Molecule: Epitope-Lipid 4: Ara h 2 epitope RRCQSQLER (28-35) lipid conjugate, tested loaded at 2% in nanoallergens (also: lipid conjugate, site not given here)
- degranulation response (RBL-SX38 cells; listed as epitope 4): simulate degranulation; also recorded: little or no degranulation response
- degranulation response in patient sera (RBL-SX38 cells; [5]): no response
- Immuno-reactivity (RBL-SX38 cells): None

Molecule: Epitope-Lipid 2: Ara h 2 epitope ERDPYSP^OHSQDPYSP^OHS (79-91) lipid conjugate, tested loaded at 2% in nanoallergens (ERDPYS[Hyp]SQDPYS[Hyp]S; also: lipid conjugate, site not given here)
- BTK phosphorylation [3]: increase in phosphorylation BTK
- fold lower concentration than Ara h 2 to stimulate degranulation (RBL-SX38 cells; 2% epitope 2 lipid, FIG. 2C): approximately 10 fold
- degranulation response (RBL-SX38 cells): simulate degranulation
- effect of proline hydroxylations on degranulation response (RBL-SX38 cells; 2% loaded nanoallergens, with and without hydroxylations, FIG. 10): increase in response when proline hydroxylations are present
- Immuno-reactivity (RBL-SX38 cells): High
- fold lower concentration than the other immune-reactive epitope nanoallergens to stimulate degranulation (RBL-SX38 cells; single patient serum, FIG. 4): approximately 100 fold

- binding through ELISA (patient IgEs): did not demonstrate any binding
Molecule: Epitope-Lipid 5: Ara h 2 epitope HASARQQWEL (15-24) lipid conjugate, tested loaded at 2% in nanoallergens (also: lipid conjugate, site not given here)
- degranulation response (RBL-SX38 cells; listed as epitope 5): simulate degranulation; also recorded: could trigger degranulation
- degranulation response in patient sera (RBL-SX38 cells; [5]): moderate responses
- Immuno-reactivity (RBL-SX38 cells): Mild

Molecule: Epitope-Lipid 8: Ara h 2 epitope CDLEVESGGRDRY (145-157) lipid conjugate, tested loaded at 2% in nanoallergens (also: lipid conjugate, site not given here)
- degranulation response (RBL-SX38 cells): little or no degranulation response
- degranulation response in patient sera (RBL-SX38 cells; all four patient sera, 2% loaded, FIG. 6, listed as epitope 8): no response; also recorded: did not demonstrate any degranulation
- Immuno-reactivity (RBL-SX38 cells): None

Molecule: Epitope-Lipid 1: Ara h 2 epitope NLRPCEQHLMQKIQRD (38-53) lipid conjugate, tested loaded at 2% in nanoallergens (also: lipid conjugate, site not given here)
- degranulation response (RBL-SX38 cells): little or no degranulation response
- degranulation response in patient sera (RBL-SX38 cells; Serum 1, 2 and 3, in contrast to Serum 0): moderate responses
- Immuno-reactivity (RBL-SX38 cells): None

- EC50 (patient IgEs): 40 ± 27 nM
B1: Ara h2: major peanut allergen, 17.5 kDa 2 S albumin seed storage protein (protein)
chain: RQQWELQGDRRCQSQLERANLRPCEQHLMQKIQRDEDSYGRDPYSPSQDPYSPSQDPDRRDPYSPSPYDRRGAGSSQHQERCCNELNEFENNQRCMCEALQQIMENQSDRLQGRQQEQQFKRELRNLPQQCGLRAPQRCDLEVESGGRDRY
- EC50 values in cellular studies [4]: low picomolar range
